Reference: patent US20250099488A1, “ANTI-PARASITE COMPOUNDS” (AUSTRALIAN NATIONAL UNIVERSITY, priority 2022, published 2025)
pIC50: −log10 of the molar value. Several values for one entry are separate records, joined by “and”; a condition that tells them apart may be missing. Identical values can stand only once. Like-named read-outs stand apart in the source and are kept apart here.

Columns and labels:
asexual P. falciparum = assay: Plasmodium growth inhibition assay (SYBR Safe), asexual stages; assay type: cell-based, Plasmodium falciparum; conditions: for IC90: read-out: IC90
Procedure: Compounds or solvent controls (DMSO, ethanol, or ethyl acetate) were serially diluted 2-fold across flat-bottom 96-well plates. Complete culture media without compound was used as a negative control. Chloroquine (100-200 nM) {Sigma C6628} was used as a positive control to determine background fluorescence. The parasitaemia of a culture containing predominantly ring stage parasites was counted by Giemsa smear. The parasitaemia was adjusted to 1% by addition of fresh uRBCs, and added to the plate at a final haematocrit of 1%, with 200 μL per well. The plates were incubated at 37° C. under humid microaerophilic conditions. […] Fluorescence was read at 490 nm excitation/520 nm emission on a FLUOstar Optima fluorescence plate reader {BMG Labtech}.
Growth inhibition data were normalised by subtracting background fluorescence from a no-growth control (high drug concentration or time=0 measurement as specified), and expressed as a percentage of the growth in the negative control (media alone or solvent control) either at the indicated timepoint, or to the highest measurement reached during the assay.
P. falciparum asexual parasite assays begun with ring-stage parasites at 1% parasitaemia and 1% haematocrit. 200 nM chloroquine (Sigma C6628) was used as a no-growth control. […] 17]; 8 (2):e54974).
(§1) Growth inhibition data were normalised by subtracting background fluorescence, luminescence, absorbance, or percentage of cells from a no-growth or no-viability control (high drug concentration, no-parasite control, or time=0 measurement as specified), and expressed as a percentage of the growth or cell percentage in the negative control (culture media alone or solvent control) at the indicated timepoint (or to the highest measurement reached during the assay for FIG. 15B).

[1] = tested on: P. falciparum gametocytes (stage III-IV); assay: Gametocyte viability assay (MitoTracker, flow cytometry); assay type: cell-based, Plasmodium falciparum
Description: Gametocyte assays begun eight days post-invasion (Stage III-IV).
as §1

[2] = tested on: P. berghei liver stage schizonts; assay: P. berghei liver stage parasite size and number (fluorescence microscopy) in Huh7 cells; assay type: cell-based, Plasmodium berghei; conditions: for Smaller parasite size (reduction): 48 hours post-infection, vs DMSO
Procedure: (§2) Huh7 cells were seeded at a density of 10 000 cells per well, or 20 000 per collagen-coated coverslip. […] Uninfected wells served as a control for background luminescence. […] Data are presented as a percentage of the size or parasite number of the solvent control to normalize for differences between experiments. For cell images presented in the figure, images were collected under optimal exposure settings to ensure features were visible. Individual cells were cropped from larger images with Fiji ImageJ, and the brightness was adjusted while ensuring that no fluorescence was removed. No other manipulations were performed.

[3] = tested on: human hepatoma cells (Huh7); assay: Huh7 hepatoma viability assay (CellTiter-Blue); assay type: cell-based; conditions: 48 hours
Procedure: Huh7 hepatoma viability assays were conducted in the same manner as the P. berghei assays, with metabolic capacity (indicating viability) measured by incubation with CellTiter-Blue® (Promega) for 3 hours.

[4] = tested on: human foreskin fibroblasts (HFF); assay: HFF growth inhibition assay (SYBR Safe); assay type: cell-based
Procedure: Cells were incubated with a serial dilution of each compound, or media/DMSO alone. The protein synthesis inhibitor cycloheximide (10 μg/mL) was used as a positive control to determine background fluorescence. Approximately 5000 cells were seeded in each well. […] Plates were transferred to a −18° C. freezer. […] Fluorescence was read at 490 nm excitation/520 nm emission on a FLUOstar Optima fluorescence plate reader.
HFF cell growth inhibition assays began with 5000 cells per well. 10 μg/mL cycloheximide was used as a no-growth control.

[5] = tested on: human embryonic kidney cells (HEK293); assay: HEK293 cell viability assay (MTT); assay type: cell-based; conditions: 96 hours
Procedure: HEK293 cell viability assays began with 5000 cells per well. 10 μg/mL cycloheximide was used as a no-growth control. Metabolic capacity (indicating viability) was measured by incubation with 0.45 mg/mL methylthiazolyldiphenyl-tetrazolium bromide (MTT; Sigma M2128) for two hours followed by crystal solubilisation in SDS.

P. berghei liver stages = assay: P. berghei liver stage growth assay (luciferase) in Huh7 cells; assay type: cell-based, Plasmodium berghei
Procedure: as §2, §1

[6] = tested on: Toxoplasma gondii tachyzoites; assay: Toxoplasma growth inhibition assay (tdTomato fluorescence); assay type: cell-based
Procedure: Fluorescent Toxoplasma gondii parasites were inoculated into an optical bottom 96-well plate containing confluent human foreskin fibroblast (HFF) host cells at a density of 2000 parasites/well, with a serial dilution of each compound, or media/DMSO alone. Plates were measured daily with a FluoStar Optima fluorescence plate reader at 540 nm excitation/590 nm emission for seven days, and the background fluorescence from the time 0 reading was subtracted from all other measurements.
Fluorescence was measured daily with a FluoStar Optima fluorescence plate reader for one week, and the background fluorescence from the time 0 reading was subtracted from all other measurements.
as §1

[7] = tested on: P. falciparum CAM3.II (mutated Kelch-13, resistant); assay: Ring stage survival assay, resistant strain; assay type: cell-based, Plasmodium falciparum; conditions: 700 nM for six hours, then 66 hours without drug
Description: (§3) The inventors tested these compounds in a ring stage survival assay, which allows the detection of resistant parasites against this […] drug and is the standard method for investigating resistance to artemisinin and its derivatives (Witkowski B, Menard D, Amaratunga C. Fairhurst R. Ring-stage Survival Assays (RSA) to evaluate the in-vitro and ex-vivo susceptibility of Plasmodium falciparum to artemisinins Procedure. Inst Pasteur du Cambodge—Natl Institutes Heal [Internet]. 2013 Sep. 11 [cited 2022 Jun. 19]; Procedure; available from: https://www.wwarn.org/sites/default/files/INV10-Standard-Operating-Procedure-Ring-Stage-Survival-Assays.pdf). This assay involves a short treatment window against newly-invaded ring stage parasites, followed by removal of drug pressure to mimic the clearance of the drug from plasma. We utilised two parasite strains: an isolate from Cambodia (CAM3.II) with a mutated Kelch-13 conferring resistance, and a genetically modified revertant of this strain (CAM3.IIREV) conferring drug susceptibility (Straimer J, Gnädig N F, Witkowski B, Amaratunga C, Duru V, Ramadani A P, et al. K13-propeller mutations confer artemisinin resistance in Plasmodium falciparum clinical isolates. Science (80-) [Internet]. 2015 Jan. 23 [cited 2022 Jun. 19]; 347(6220):428-31; available from: https://www.science.org/doi/10.1126/science.1260867).
(§4) Following tight synchronisation, CAM3.II and CAM3.IIREV ring stage parasites (0-3 hours post invasion) at 1% parasitaemia and 2% haematocrit were incubated with 700 nM of compounds or solvent-only controls for exactly six hours, before removing the drug, thoroughly washing in RPMI, and returning to culture conditions for a further 66 hours. Some cells were treated with 700 nM artesunate for 72 hours as a no-growth control. DNA replication (indicating growth) was measured at the specified time using SYBR Safe DNA Gel Stain. Microscope slide smears of each condition were stained with 10% v/v Giemsa and examined under a light microscope (1 000× magnification); with ‘viable’ (morphologically normal) and ‘non-viable’ (morphologically aberrant; vacuolated or pyknotic) parasites distinguished according to standard protocol (Witkowski B, Menard D, Amaratunga C, Fairhurst R. Ring-stage Survival Assays (RSA) to evaluate the in-vitro and ex-vivo susceptibility of Plasmodium falciparum to artemisinins Procedure. Inst Pasteur du Cambodge—Natl Institutes Heal [Internet]. 2013 Sep. 11 [cited 2022 Jun. 19]; Procedure. Available from: https://www.wwam.org/sites/default/files/INV10-Standard-Operating-Procedure-Ring-Stage-Survival-Assays.pdf). Images were captured using a Leica ICC50 camera, with a resolution of 76 nm per pixel.

[8] = tested on: P. falciparum CAM3.IIREV (susceptible); assay: Ring stage survival assay, susceptible revertant strain; assay type: cell-based, Plasmodium falciparum; conditions: 700 nM for six hours, then 66 hours without drug
Description: as §3, §4

[9] = in vivo; cited from earlier work

Structure (SMILES): COc1cc(NC(C)CCCNC(=O)CCC(=O)O[C@H]2CC[C@H]3[C@@H]4CC=C5C[C@@H](O)CC[C@]5(C)[C@H]4CC[C@]23C)c2ncccc2c1 (stereo partly drawn) [C-17-prim, 3β-Hydroxyandrost-5-en-17β-yl succinate-primaquine amide]
- Fold lower IC50 than primaquine alone (asexual P. falciparum): ~4 fold
- Fold difference in IC90 vs primaquine (asexual P. falciparum; 24 hours): ~8 fold
- Hill slope of inhibitory curve (asexual P. falciparum; 24 hours): −4.56
- Hill slope of inhibitory curve (asexual P. falciparum; 72 hours): −4.20
- pIC50 (asexual P. falciparum; Plasmodium falciparum, 24 hours, starting with ring-stage parasites, FIG. 14B, read-out: IC50): 5.51
- IC90 (asexual P. falciparum; Plasmodium falciparum, 24 hours): 5 µM
- IC90 (asexual P. falciparum; Plasmodium falciparum, 72 hours exposure time): 4 µM
- Fold reduction in IC50 compared to primaquine alone ([1]; 48 hours): 9 fold
- pIC50 ([1]; Plasmodium falciparum, 48 h, read-out: IC50, gametocyte viability): 5.16
- Smaller parasite size (reduction) ([2]; 0.3 μM): 48%
- Smaller parasite size (reduction) ([2]; 3 μM): 90%
- Parasite number (per coverslip) ([2]; 0.3 or 3 μM, compared to the same concentration of primaquine or DMSO-only control): significantly lower
- Cell viability over the range of concentrations [3]: > 50%
- Concentration at which cytotoxic effect was detected ([3]; effect on cellular integrity / modest cytotoxicity): 3 µM
- Concentration with substantial effect on fibroblast growth ([4]; 72 hours): 10 µM
- Maximal inhibition of HFF growth at the range of concentrations tested ([4]; 72 hrs): ≤ 30%
- Concentration at which gradual cytotoxicity emerges [5]: 10 µM
- Fold reduction in IC50 compared to primaquine alone (P. berghei liver stages; 48 hours): ~15 fold
- pIC50 (P. berghei liver stages; Plasmodium berghei, Huh-7, 48 hours of treatment from sporozoite inoculation, Huh7 cells, FIG. 16A): 6.70
- Fold lower IC50 than primaquine ([6]; 72 hours): ~3.5 fold
- pIC50 ([6]; Toxoplasma gondii, 72 h, read-out: IC5 against T. gondii): 5.55

Structure (SMILES): C[C@H]1[C@H](OC(=O)CCC(=O)O)O[C@@H]2O[C@@]3(C)CC[C@H]4[C@H](C)CC[C@@H]1[C@@]24OO3 [artesunate, reference compound]
- Morphology in Giemsa-stained smears [7]: a combination of morphologically normal parasites and morphologically aberrant pyknotic or vacuolated forms
- Parasite survival (DNA replication) ([7]; FIG. 17B): > 30% and ~30%
- Morphology in Giemsa-stained smears [8]: only morphologically aberrant parasites were present
- Half-life in blood [9]: 30 to 90 min
